What was measured:
C57bl/6 mice = assay: Kainic acid injection in the hippocampus, cCASP3 immunostaining; type: in vivo, mouse; details: 30 mg/kg i.p. daily 1 week, then kainic acid, 24 h
Description: C57bl/6 mice were daily treated with IBET858 (30 mg/kg, i.p.) for 1 week, followed by stereotaxic injection of kainic acid in the hippocampus. Mice were perfused 24 hours after kainic acid injection and brains were immunostained for cCASP3 to identify dying cells.

primary cortical neurons = assay: Gene expression in primary cortical neurons; type: cell-based, mouse
Text: Primary Cortical Neuron Culture. Embryonic day 18 (E18) timed-pregnant female mice were anesthetized with CO2 and sacrificed by cervical dislocation. In a dissection hood, 24-26 embryos per experiment were collected through an incision of the mother's abdomen, taken out of the amniotic sacs and decapitated in ice cold Hank's Balanced Salt Solution (HBSS). Using fine scissors and forceps, brains were rapidly dissected and the cortex cleared from meninges and isolated under a dissection microscope. Cortices were collected in ice cold HBSS and kept on ice until all embryos had been dissected. In a tissue culture hood, HBSS was removed and the cortex tissue digested by 0.25% Trypsin-EDTA for 12 minutes at 37° C., followed by DNase1 treatment for 10 minutes at 37° C. The tissue was dissociated by serial trituration with a 25 ml serological pipette, followed by trituration with 10 ml and 5 ml serological pipettes. Cell suspension was washed once with DMEM medium, supplemented with 10% FBS and 1% penicillin/streptomycin and passed through a […] cell strainer before counted on a hemocytometer. Single cells were seeded on poly-D-lysine (0.1 mg ml-1) coated wells at a density of 1×10^6 cells per well on a 12-well plate. Cells were grown in Neurobasal medium, complemented with B27 supplement, N2 supplement, and 0.5 mM L-glutamine and maintained at 37° C. in 5% CO2 for 1 week. […] Cultures were washed with phosphate-buffered saline (PBS) on ice and processed for RNA isolation using TRIzol/Chloroform extraction.
RNA Isolation. For in vitro gene expression analysis, neuronal culture plates were washed once with PBS, and TRIzol was added directly to cultures to isolate RNA (n=3 per group). For in vivo gene expression analysis, mice were anesthetized with CO2 and decapitated. The striata from two control and acute or chronic I-BET treated mice were rapidly dissected on ice and frozen in liquid nitrogen. RNA extraction from frozen samples was performed using TRIzol/Chloroform according to manufacturer's instructions (Invitrogen Corporation, Carlsbad, CA). RNA was precipitated overnight at −80° C. in isopropanol with 0.15 M sodium acetate, washed twice with 70% ethanol, air-dried, and resuspended in RNase-free water. RNA samples were purified using Rneasy Micro columns (Qiagen) with on-column DNAse treatment as specified by manufacturer. […]
RNA Sequencing. […] Duplexed libraries were sequenced on HiSeq 2000, typically yielding on average 60 million, 100 bp long single-end reads per sample (Illumina). […] After filtering out adaptor and low quality reads, reads were mapped using TopHat (version 2.0.8) to the mm9 mouse genome. […] Differentially expressed autosomal genes between control and acute I-BET858 or chronic I-BET858 libraries were determined using a p-value <0.05 and fold change of >2. […]

With `CC(=O)N1c2ccc(-c3ccc(CN4CCCCC4)cc3)cc2[C@H](Nc2ccccc2)CC1C` (stereo in doubt) [IBET858] the “glutamate-induced toxicity in vivo (cCASP3 dying cells)” value (C57bl/6 mice) was “protects neurons from glutamate-induced toxicity in vivo”, the “cellular composition of the culture and cell identity gene expression” value (primary cortical neurons; 1 week IBET858) was “does not change” and the “autophagy, proteolysis and pro-survival genes” value (primary cortical neurons; chronic BET inhibition) was “up-regulation”. The “metabolic genes (amino acid synthesis and import, glycolysis/TCA cycle, oxidative phosphorylation, fatty acid metabolism)” value (primary cortical neurons; chronic BET inhibition, day 14) was “down-regulated” and the “genes decreased by rapamycin that were also decreased by IBET858” value (primary cortical neurons; one week treatment, 93/165) was 56%.
